Test results reported in patent US7888342B2, “Methods of treating fibromyalgia syndrome, chronic fatigue syndrome and pain” (Cypress Bioscience, Inc., priority 2001, dated 2011).

Columns and labels:
[1] = system: patients with fibromyalgia syndrome (FMS); assay: Example 5: multicenter, double-blind, randomized, placebo-controlled monotherapy study of milnacipran for fibromyalgia; format: in vivo, human; conditions: 3-months
Experimental: This was a multicenter, randomized, double-blind, placebo-controlled three-arm study designed which enrolled 1196 patients who meet the 1990 ACR criteria for fibromyalgia syndrome (history of widespread pain and pain in 11 of 18 tender point sites on digital palpation), as well as the more detailed admission criteria outlined in the protocol. […] All randomized medications (placebo and milnacipran) were administered twice a day (BID). (i) Primary Efficacy Assessments: Patient Global Impression of Change (PGIC) administered to patients at visits […] Tx15/ET; Physical Component summary of SF-36 (SF-36 PCS) administered to patients at visits BL2/Tx0, […]) Secondary Efficacy Assessments: Time weighted average (AUC) of weekly average PED morning recall pain score; PGIC and SF-36 PCS administered to patients at visits Tx3 to Tx15. (iii) Additional Efficacy Measurements: The Fibromyalgia Impact Questionnaire (FIQ) total score and physical function, Beck Depression Inventory (BDI), the MOS-Sleep Index Scale, the Arizona Sexual Experiences Scale (ASEX), Patient pain 24 hour and 7 day recall VAS, the SF-36 individual domains, Patient Global Disease Status, Patient Global Therapeutic Benefit, the Multiple Ability Self-report Questionnaire (MASQ, cognitive function), the Multidimensional Health Assessment Questionnaire (MDHAQ), Multidimensional Fatigue Inventory (MFI), and diary assessments including current pain (morning, random daily, and evening reports); overall pain past week (weekly report), overall fatigue in the last week (weekly report), and the extent that pain kept the patient from caring for themselves (weekly report). The primary efficacy assessment of this study was a composite responder status defined by three domains of interest evaluated at visit Tx15. The domains measured were The primary efficacy parameter for an indication in the treatment of pain of fibromyalgia was the composite responder status based on the morning recall pain as recorded in the PED and patient global as recorded on the PGIC at Visit Tx15. The primary efficacy parameter for an indication in the treatment of FMS was the composite responder status based on two domains of pain and patient global as used above in the primary efficacy parameter for the treatment of the pain of fibromyalgia plus the additional domain of physical function as measured by the SF-36 PCS at Visit Tx15. […] A patient was classified as a responder for the treatment of FMS if he or she satisfied the responder criteria for the treatment of pain of fibromyalgia and the following additional criterion (at visit Tx15): • Improvement on the SF-36 PCS score from baseline by an amount at least equivalent to the minimal clinically important difference, as defined in the Statistical Analysis Plan. Table 1 summarizes 3-month results for the Baseline Observation Carried Forward (BOCF), Last Observation Carried Forward (LOCF) and study completer (OC) populations. LOCF is an analysis in which observations are carried forward to the last time point for patients who dropped out. The LOCF analysis treats the carried-forward data as observed data at the last time point. BOCF is an analysis that requires that the patient remain active in the trial to be evaluated for response. If a patient withdrew from the trial for any reason, they were classified as a non-responder irregardless of their pain and global scores at the time of withdrawal.

[2] = molecular target: NMDA receptor; conditions: read-out: IC50, NMDA receptor antagonistic properties; cited from earlier work
[3] = system: patient experiencing fatigue and fibromyalgia; conditions: lofepramine 70 mg bd in combination with L-phenylalanine 500 mg bd; persisted for more than six months; cited from earlier work

**Q.** Which results are given for CCN(CC)C(=O)[C@]1(c2ccccc2)C[C@@H]1CN (racemic) [milnacipran, cis-(±)-2-(aminomethyl)-N,N-diethyl-1-phenyl-cyclopropanecarboxamide]?
**A.** Composite Pain responder rate, difference from placebo ([1]; BOCF, 100 mg/day (399)): 6.35%; Composite Pain responders, number ([1]; BOCF, 100 mg/day (399)): 91; Composite Pain responders, percent ([1]; BOCF, 100 mg/day (399)): (22.81%); Composite Syndrome responder rate, difference from placebo ([1]; BOCF, 100 mg/day (399)): 5.81%; Composite Syndrome responders, number ([1]; BOCF, 100 mg/day (399)): 58; Composite Syndrome responders, percent ([1]; BOCF, 100 mg/day (399)): (14.54%); PGIC Component responder rate, difference from placebo ([1]; BOCF, 100 mg/day (399)): 8.39%; PGIC Component responders, number ([1]; BOCF, 100 mg/day (399)): 125; PGIC Component responders, percent ([1]; BOCF, 100 mg/day (399)): (31.33%); Pain Component responder rate, difference from placebo ([1]; BOCF, 100 mg/day (399)): 5.89%; Pain Component responders, number ([1]; BOCF, 100 mg/day (399)): 124; Pain Component responders, percent ([1]; BOCF, 100 mg/day (399)): (31.08%); SF36 PCS Component responder rate, difference from placebo ([1]; BOCF, 100 mg/day (399)): 5.62%; SF36 PCS Component responders, number ([1]; BOCF, 100 mg/day (399)): 108; SF36 PCS Component responders, percent ([1]; BOCF, 100 mg/day (399)): (27.07%); Composite Pain responder rate, difference from placebo ([1]; BOCF, 200 mg/day (396)): 8.29%; Composite Pain responders, number ([1]; BOCF, 200 mg/day (396)): 98; Composite Pain responders, percent ([1]; BOCF, 200 mg/day (396)): (24.75%); Composite Syndrome responder rate, difference from placebo ([1]; BOCF, 200 mg/day (396)): 5.16%; Composite Syndrome responders, number ([1]; BOCF, 200 mg/day (396)): 55; Composite Syndrome responders, percent ([1]; BOCF, 200 mg/day (396)): (13.89%); PGIC Component responder rate, difference from placebo ([1]; BOCF, 200 mg/day (396)): 9.64%; PGIC Component responders, number ([1]; BOCF, 200 mg/day (396)): 129; PGIC Component responders, percent ([1]; BOCF, 200 mg/day (396)): (32.58%); Pain Component responder rate, difference from placebo ([1]; BOCF, 200 mg/day (396)): 4.86%; Pain Component responders, number ([1]; BOCF, 200 mg/day (396)): 119; Pain Component responders, percent ([1]; BOCF, 200 mg/day (396)): (30.05%); SF36 PCS Component responder rate, difference from placebo ([1]; BOCF, 200 mg/day (396)): 1.02%; SF36 PCS Component responders, number ([1]; BOCF, 200 mg/day (396)): 89; SF36 PCS Component responders, percent ([1]; BOCF, 200 mg/day (396)): (22.47%); Composite Pain responder rate, difference from placebo ([1]; LOCF, 100 mg/day (399)): 7.61%; Composite Pain responders, number ([1]; LOCF, 100 mg/day (399)): 103; Composite Pain responders, percent ([1]; LOCF, 100 mg/day (399)): (25.81%); Composite Syndrome responder rate, difference from placebo ([1]; LOCF, 100 mg/day (399)): 6.56%; Composite Syndrome responders, number ([1]; LOCF, 100 mg/day (399)): 65; Composite Syndrome responders, percent ([1]; LOCF, 100 mg/day (399)): (16.29%); PGIC Component responder rate, difference from placebo ([1]; LOCF, 100 mg/day (399)): 9.65%; PGIC Component responders, number ([1]; LOCF, 100 mg/day (399)): 138; PGIC Component responders, percent ([1]; LOCF, 100 mg/day (399)): (34.59%); Pain Component responder rate, difference from placebo ([1]; LOCF, 100 mg/day (399)): 8.66%; Pain Component responders, number ([1]; LOCF, 100 mg/day (399)): 149; Pain Component responders, percent ([1]; LOCF, 100 mg/day (399)): (37.34%); SF36 PCS Component responder rate, difference from placebo ([1]; LOCF, 100 mg/day (399)): 6.89%; SF36 PCS Component responders, number ([1]; LOCF, 100 mg/day (399)): 129; SF36 PCS Component responders, percent ([1]; LOCF, 100 mg/day (399)): (32.33%); Composite Pain responder rate, difference from placebo ([1]; LOCF, 200 mg/day (396)): 11.35%; Composite Pain responders, number ([1]; LOCF, 200 mg/day (396)): 117; Composite Pain responders, percent ([1]; LOCF, 200 mg/day (396)): (29.55%); Composite Syndrome responder rate, difference from placebo ([1]; LOCF, 200 mg/day (396)): 6.68%; Composite Syndrome responders, number ([1]; LOCF, 200 mg/day (396)): 65; Composite Syndrome responders, percent ([1]; LOCF, 200 mg/day (396)): (16.41%); PGIC Component responder rate, difference from placebo ([1]; LOCF, 200 mg/day (396)): 13.19%; PGIC Component responders, number ([1]; LOCF, 200 mg/day (396)): 151; PGIC Component responders, percent ([1]; LOCF, 200 mg/day (396)): (38.13%); Pain Component responder rate, difference from placebo ([1]; LOCF, 200 mg/day (396)): 11.22%; Pain Component responders, number ([1]; LOCF, 200 mg/day (396)): 158; Pain Component responders, percent ([1]; LOCF, 200 mg/day (396)): (39.90%); SF36 PCS Component responder rate, difference from placebo ([1]; LOCF, 200 mg/day (396)): 2.09%; SF36 PCS Component responders, number ([1]; LOCF, 200 mg/day (396)): 109; SF36 PCS Component responders, percent ([1]; LOCF, 200 mg/day (396)): (27.53%); Composite Pain responder rate, difference from placebo ([1]; OC, 100 mg/day): 13.37%; Composite Pain responders, percent ([1]; OC, 100 mg/day): (38.56%); Composite Pain, m/n = # of responders/# of patients included ([1]; OC, 100 mg/day): 91/236; Composite Syndrome responder rate, difference from placebo ([1]; OC, 100 mg/day): 11.22%; Composite Syndrome responders, percent ([1]; OC, 100 mg/day): (24.58%); Composite Syndrome, m/n = # of responders/# of patients included ([1]; OC, 100 mg/day): 58/236; PGIC Component responder rate, difference from placebo ([1]; OC, 100 mg/day): 15.70%; PGIC Component responders, percent ([1]; OC, 100 mg/day): (47.53%); PGIC Component, m/n = # of responders/# of patients included ([1]; OC, 100 mg/day): 125/263; Pain Component responder rate, difference from placebo ([1]; OC, 100 mg/day): 13.92%; Pain Component responders, percent ([1]; OC, 100 mg/day): (52.32%); Pain Component, m/n = # of responders/# of patients included ([1]; OC, 100 mg/day): 124/237; SF36 PCS Component responder rate, difference from placebo ([1]; OC, 100 mg/day): 11.40%; SF36 PCS Component responders, percent ([1]; OC, 100 mg/day): (41.06%); SF36 PCS Component, m/n = # of responders/# of patients included ([1]; OC, 100 mg/day): 108/263; Composite Pain responder rate, difference from placebo ([1]; OC, 200 mg/day): 20.39%; Composite Pain responders, percent ([1]; OC, 200 mg/day): (45.58%); Composite Pain, m/n = # of responders/# of patients included ([1]; OC, 200 mg/day): 98/215; Composite Syndrome responder rate, difference from placebo ([1]; OC, 200 mg/day): 12.22%; Composite Syndrome responders, percent ([1]; OC, 200 mg/day): (25.58%); Composite Syndrome, m/n = # of responders/# of patients included ([1]; OC, 200 mg/day): 55/215; PGIC Component responder rate, difference from placebo ([1]; OC, 200 mg/day): 18.76%; PGIC Component responders, percent ([1]; OC, 200 mg/day): (50.59%); PGIC Component, m/n = # of responders/# of patients included ([1]; OC, 200 mg/day): 129/255; Pain Component responder rate, difference from placebo ([1]; OC, 200 mg/day): 16.44%; Pain Component responders, percent ([1]; OC, 200 mg/day): (54.84%); Pain Component, m/n = # of responders/# of patients included ([1]; OC, 200 mg/day): 119/217; SF36 PCS Component responder rate, difference from placebo ([1]; OC, 200 mg/day): 5.24%; SF36 PCS Component responders, percent ([1]; OC, 200 mg/day): (34.90%); SF36 PCS Component, m/n = # of responders/# of patients included ([1]; OC, 200 mg/day): 89/255; IC50 [2]: ~6.3 µM

**Q.** Which “effect on fatigue and fibromyalgia” value [3] does the source give for CN(CCCN1c2ccccc2CCc2ccccc21)CC(=O)c1ccc(Cl)cc1 [lofepramine] here?
**A.** Its value is “considerable improvement in fatigue and fibromyalgia”.
